The source of these data is patent US20160058304A1, “SYSTEM AND METHOD FOR VESSEL ARCHITECTURAL IMAGING” (priority 2013, published 2016).

Structures are written as SMILES.

The test system of experiment [1] is recurrent glioblastomas. The conditions noted are these: background statement on cediranib trial; cited from earlier work.
Experiment [2] relates to recurrent glioblastomas. The experiment is described as follows: Phase II clinical trial of cediranib in recurrent glioblastoma, retrospective VAI (MRI) analysis. It counts as in vivo, human. The text has this:
The study was approved by the institutional review board and informed consent was obtained from all subjects. Subject data included 13 females and 17 males diagnosed with a recurrent glioblastoma, average age 52 years, range 20-78 years. After study termination, nine subjects received one subsequent cycle of salvage chemotherapy, eight subjects received two cycles, one subject received three cycles, two subjects had undisclosed information on salvage chemotherapy and one subject received stereotactic radiosurgery.
Baseline MRI examinations were acquired prior to therapy onset (days −5 and −1), and then repeated on days 1, 28, 56 and 112 after cediranib (AstraZeneca Pharmaceuticals) anti-angiogenic therapy onset or until disease progression according to the Macdonald criteria. All imaging were performed on a 3 Tesla Magnetom Trio MRI system (Siemens Medical Solutions) as follows:
4. Dynamic susceptibility contrast (DSC) perfusion images. Axial dual-echo echo-planar images with repetition-time 1.33 s, echo-times 34 ms and 103 ms, slice-thickness 5 mm, inter-slice distance 2.5 mm, in-plane resolution 1.70:1.70 mm, matrix size 128:128, 10 slices and 120 volumes. After approximately 85 s of imaging, a 0.2 mmol kg−1 dose of Gd-DTPA was injected at 5 cc s−1.
We obtained relaxation rate curves for VAI analysis, perfusion values, blood volumes and mean transit times using established tracer kinetic models on the DSC images, corrected for contrast agent leakage (from blood-brain-barrier breakdown or resection) and fitted to a gammavariate curve for better visualization of vessel vortex effects. It has been speculated that contrast agent leakage is the reason for the clockwise vortex effect. […] Here, the pre-dose of Gd-DTPA during DCE imaging saturated potential leaky tumor tissue in the DSC images thereby minimizing the influence of leakage-induced T1-shortening effects. Relaxation rate curves not suited for analysis, conveying highly fluctuating time-courses from partial volume effects, voxel shifts and physiological pulsations were excluded from further analysis. Across all 30 subjects, an average of 78.21 percent±12.78 percent (standard deviation) of all tumor voxels met the inclusion criteria. To account for potential global systemic effects from hypertension, tumor relaxation rate curves were scaled with corresponding slice-specific mean, normal-tissue reference curves. In all figures showing vessel vortex curves, the tails of the vortex curves have been cut short to better visualize vortex direction. VAI analysis was performed using custom-made software in Matlab and traditional MRI was analyzed in nordicICE (NordicNeuroLab AS).
A subject was assumed to have an increase (decrease) in voxels with a clockwise vortex direction if the clockwise- to counter-clockwise ratio was higher (lower) than the 95 percent confidence interval of the population arithmetic mean for two consecutive imaging time points. […] Differences in VAI parameters during therapy were assessed using pairwise Wilcoxons Signed Rank test. Differences in tumor volumes, vessel caliber, permeability, perfusion and mean transit times were assessed using Mann-Whitney tests. Associations between changes in vessel vortex direction ratios and progression-free survival and overall survival were assessed using multinomial logistic regression, Kaplan-Meier survival analysis and Cox regression after adjustments for age, extent of resection, neurological performance, salvage chemotherapy and stereotactic radiosurgery after study termination as well as changes in permeability (Ktrans), T1-weighted contrast-enhanced tumor volume and T2-weighted FLAIR tumor volume prior to, and during, anti-angiogenic therapy. For all tests, P=0.05 was considered significant (with Holm-Bonferroni correction for multiple comparisons) and pixel values below a 5 percent percentile and above a 95 percent percentile were removed prior to analysis to reduce the influence of outliers. […]

On to `COc1cc2c(Oc3ccc4[nH]c(C)cc4c3F)ncnc2cc1OCCCN1CCCC1` [cediranib], for which the “Longer survival of patients whose tumor perfusion increased during treatment” value with recurrent glioblastomas [1] was “approximately 6 months”. For the same compound, the “Relative number of image voxels with a clockwise vortex direction in the tumor after therapy onset” value with recurrent glioblastomas [2] (30 subjects collectively, pair-wise Wilcoxons Signed Ranks test P<0.05) is “significant increase”. For the same compound, the “Median overall survival, nonresponders” value in the experiment with recurrent glioblastomas [2] (non-responders = relative decrease in image voxels with clockwise vortex direction, recurrent glioblastoma) stood at 146 days. Also, the “Median overall survival, non-responding patients” value with recurrent glioblastomas [2] (non-responders with stable or reduced perfusion, P<0.001) is 169 days. In addition, the “Median overall survival, responding subjects” value in the experiment on recurrent glioblastomas [2] (responders = relative increase in image voxels with clockwise vortex direction at two consecutive imaging time points, recurrent glioblastoma) stood at 341 days. Also, the “Longer survival of responding vs non-responding patients” value with recurrent glioblastomas [2] (responders by increased perfusion vs non-responders) is given as “approximately 6 months”. For the same compound, the “Shunt index values at days 1 and 28” value in the experiment on recurrent glioblastomas [2] (responders by vascular normalization compared to non-responders, P<0.05) is “reduced”. Also, the “Median overall survival, responding patients” value in the experiment with recurrent glioblastomas [2] (responders identified by increased perfusion (vascular normalization), P<0.001) is 348 days. In addition, the “Contrast enhanced and FLAIR tumor volumes at day 28” value in the experiment on recurrent glioblastomas [2] (responders vs non-responders, Mann-Whitney P<0.05) is “significant reductions”. Besides, the “Whole-tumor vessel calibers compared to pre-treatment” value in the experiment on recurrent glioblastomas [2] (responding subjects, P<0.01) is “significant reductions”.
